Measured values published in PubChem BioAssay AID1963873 (Molecular Pharmacology Branch, DTP, NCI, 2024).

Tested on: 276233-004-R-J1-PDC KRAS spheroids with HUVEC/MSC, viability
Experiment: Anticancer human tumor 276233-004-R-J1-PDC patient-derived colon adenocarcinoma cell line growth inhibition [KRAS2]
Settings: for IC50: curve of first compound; for viability, T/C: stronger effect = lower value
Text: Multicellular complex tumor spheroid response to RAS pathway inhibitors in combination with a targeted agents in patient-derived cell lines with oncogenic KRAS variants from multiple cancer types
A high-throughput screen of multi-cell type tumor spheroids was designed to identify active combinations of targeted small molecules and KRAS pathway inhibitors. Complex spheroids include a stromal component modeled by human endothelial cells (HUVEC) and fibroblasts modeled by human mesenchymal stem cells (MSCs). The concentration ranges selected for each drug and investigational agent were based upon clinically achievable concentrations if the clinical Cmax of the agent was known.
Compounds. The drugs and investigational agents: BI-3406 (NSC825286), BAY-293 (NSC824723), batoprotafib (TNO155; NSC825523), sotorasib (AMG 510; NSC818433), MRTX1257 (NSC819558), elimusertib (BAY 1895344; NSC800525), molibresib (GSK525762; NSC774829), temuterkib (LY3214996; NSC803410), venetoclax (NSC766270), alisertib (NSC759677), olaparib (NSC753686), talazoparib (NSC767125), erdafitinib (NSC781556), ipatasertib (NSC767898), cabozantinib (NSC761068), nintedanib (NSC756659), abemaciclib (NSC768073), docetaxel (NSC628503), trametinib (NSC758246), and sapanisertib (NSC764658) were obtained from the National Cancer Institute (NCI) Developmental Therapeutics Program Chemical Repository. The FDA-approved anticancer drug set is available from the Developmental Therapeutics Program. […] The stock solutions were prepared in dimethyl sulfoxide (DMSO, Sigma-Aldrich, St. Louis, MO, cat. D2650) at 800-fold the tested concentration and stored at -70 degrees C prior to their use. All drugs and investigational agents were tested over a range starting from a high concentration at or near the clinical Cmax and decreasing in half-log increments. If the clinical Cmax for an agent had not been determined, the highest concentration tested was 10 microM.
Cell Culture. All cells were maintained in an incubator at 37 degrees C and 5% CO2 with 95% humidity. The PDC lines were cultured according to standard operating procedures established by the NCI PDMR (https://pdmr.cancer.gov/sops/default.htm). Briefly, all PDCs were thawed and cultured in Matrigel-coated flasks prepared with a working solution of 1X Ham's F-12 nutrient mix, without supplementation (Invitrogen, Waltham, MA, cat. 11765054), 100 U/mL penicillin-streptomycin (Invitrogen, cat. 15140122), and 2.5% Matrigel (Corning Inc., Corning, NY, cat. 354248) for the first three passages. All PDCs were cultured in complete DMEM/F-12 media containing advanced DMEM/F-12 (Invitrogen, cat. 12634028), 4.9% defined fetal bovine serum, heat inactivated (HyClone Laboratories Inc., Logan, UT, cat. SH30070.03HI), 389 ng/mL hydrocortisone (Sigma-Aldrich, cat. H4001), 9.7 ng/mL human EGF recombinant protein (Invitrogen, cat. PHG0313), 23.4 microg/mL adenine (Sigma-Aldrich, cat. A2786), 97.3 U/mL penicillin-streptomycin (Invitrogen, cat. 15140122), 1.9 mM L-glutamine (Invitrogen, cat. 25030081), and 9.7 microM Y-27632 dihydrochloride (Tocris Bioscience, Bristol, United Kingdom, cat. 1254). The PDCs were cultured in complete DMEM/F12 media without 9.7 microM Y-27632 dihydrochloride for at least two passages prior to the screen. The established cell line HOP-62 was cultured in RPMI 1640 medium, HEPES (Invitrogen, cat. 22400105) with 10% defined fetal bovine serum (HyClone Laboratories Inc., cat. SH30070.03) and 2 mM L-glutamine (Invitrogen, cat. 25030081). The pooled donor HUVEC were cultured in endothelial cell growth medium 2 (PromoCell, Heidelberg, Germany, cat. C-22011) and the hMSC were cultured in mesenchymal stem cell growth medium 2 (PromoCell, cat. C-28009). For all experiments, HUVEC and hMSC were used at passages </=5, while the malignant cell lines were used at passages </=15. […]

[1] = second compound 0.0316 µM, first compound 0.0316 µM
[2] = second compound 0.0316 µM, first compound 0.1 µM
[3] = second compound 0.0316 µM, first compound 0.316 µM
[4] = second compound 0.0316 µM, first compound 1 µM
[5] = second compound 0.0316 µM, first compound 3.16 µM
[6] = second compound 0.1 µM, first compound 0.0316 µM
[7] = second compound 0.1 µM, first compound 0.1 µM
[8] = second compound 0.1 µM, first compound 0.316 µM
[9] = second compound 0.1 µM, first compound 1 µM
[10] = second compound 0.1 µM, first compound 3.16 µM
[11] = second compound 0.316 µM, first compound 0.0316 µM
[12] = second compound 0.316 µM, first compound 0.1 µM
[13] = second compound 0.316 µM, first compound 0.316 µM
[14] = second compound 0.316 µM, first compound 1 µM
[15] = second compound 0.316 µM, first compound 3.16 µM
[16] = second compound 1 µM, first compound 0.0316 µM
[17] = second compound 1 µM, first compound 0.1 µM
[18] = second compound 1 µM, first compound 0.316 µM
[19] = second compound 1 µM, first compound 1 µM
[20] = second compound 1 µM, first compound 3.16 µM
[21] = second compound 3.16 µM, first compound 0.0316 µM
[22] = second compound 3.16 µM, first compound 0.1 µM
[23] = second compound 3.16 µM, first compound 0.316 µM
[24] = second compound 3.16 µM, first compound 1 µM
[25] = second compound 3.16 µM, first compound 3.16 µM
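Note: cells exposed to agents for seven days before viability read.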
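Throughout, for viability, T/C: 100% = DMSO vehicle control wells and lower values mean fewer viable cells.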

Compound	IC50 (second compound 0.0316 µM) [µM]	IC50 (second compound 0.1 µM) [µM]	IC50 (second compound 0.316 µM) [µM]	IC50 (second compound 1 µM) [µM]	IC50 (second compound 3.16 µM) [µM]	viability, T/C [1] [%]	viability, T/C [2] [%]	viability, T/C [3] [%]	viability, T/C [4] [%]	viability, T/C [5] [%]	viability, T/C [6] [%]	viability, T/C [7] [%]	viability, T/C [8] [%]	viability, T/C [9] [%]	viability, T/C [10] [%]	viability, T/C [11] [%]	viability, T/C [12] [%]	viability, T/C [13] [%]	viability, T/C [14] [%]	viability, T/C [15] [%]	further results
COc1cc2nccc(Oc3ccc(NC(=O)C4(C(=O)Nc5ccc(F)cc5)CC4)cc3)c2cc1OC + C=CC(=O)N1CCN(c2nc(OCC3CCCN3C)nc3c2CCN(c2cccc4cccc(C)c24)C3)CC1CC#N	> 10	> 10	> 10	> 10	1.68	80	89.7	91	78.9	87.6	93.5	116	82.5	94.2	74.8	76.2	79.5	86	84.6	84.7	viability, T/C (second compound 0.0316 µM, first compound 10 µM): 90.6%; viability, T/C (second compound 0.1 µM, first compound 10 µM): 70.6%; viability, T/C (second compound 0.316 µM, first compound 10 µM): 91.2%; viability, T/C [16]: 71.5%; viability, T/C [17]: 74.5%; viability, T/C [18]: 67.1%; viability, T/C [19]: 72%; viability, T/C [20]: 80.1%; viability, T/C (second compound 1 µM, first compound 10 µM): 75.7%; viability, T/C [21]: 52.1%; viability, T/C [22]: 63.4%; viability, T/C [23]: 65%; viability, T/C [24]: 76.7%; viability, T/C [25]: 32.6%; viability, T/C (second compound 3.16 µM, first compound 10 µM): 3.91%
CC(=O)OC12COC1CC(O)C1(C)C(=O)C(O)C3=C(C)C(OC(=O)C(O)C(NC(=O)OC(C)(C)C)c4ccccc4)CC(O)(C(OC(=O)c4ccccc4)C21)C3(C)C (stereo not given) + C=CC(=O)N1CCN(c2nc(OCC3CCCN3C)nc3c2CCN(c2cccc4cccc(C)c24)C3)CC1CC#N	> 3.16	> 3.16	> 3.16	> 3.16	> 3.16	90.6	103	96	112	94.8	96.3	76.4	86.8	91.5	95.5	83.4	73.6	72.2	99	107	viability, T/C (second compound 0.0316 µM, first compound 0.01 µM): 82.1%; viability, T/C (second compound 0.1 µM, first compound 0.01 µM): 96.7%; viability, T/C (second compound 0.316 µM, first compound 0.01 µM): 97.8%; viability, T/C (second compound 1 µM, first compound 0.01 µM): 84.4%; viability, T/C [16]: 79.3%; viability, T/C [17]: 75.8%; viability, T/C [18]: 71.3%; viability, T/C [19]: 93.3%; viability, T/C [20]: 98.2%; viability, T/C (second compound 3.16 µM, first compound 0.01 µM): 103%; viability, T/C [21]: 87.8%; viability, T/C [22]: 88.4%; viability, T/C [23]: 87.2%; viability, T/C [24]: 95.7%; viability, T/C [25]: 112%
